# Where no end group is shown, it is not given here. [ ]: non-standard residue; d: D form.
# Legend:
# p62 = p62 degradation assay (p62/actin immunoblot);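 as to Activity (μM) 10, p62/actin assay activity: HeLa cells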;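 as to Activity (μM) 100, p62/actin assay activity: HeLa cells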;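 as to Activity (μM) 30, p62/actin assay activity: HeLa cells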;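 as to Activity (μM) 50, p62/actin assay activity: HeLa cells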; type: cell-based; design: key: −: activity not reported; 0: decreased vs. WT; +: similar to WT; ++: modest increase vs. WT; +++: significant increase vs. WT; conditions: Table 8, control compound T25, first symbol; for Activity (μM) 5, p62/actin assay activity: 5 μM; for Activity (μM) 10, p62/actin assay activity: 10 μM; for Activity (μM) 30, p62/actin assay activity: 30 μM; for Activity (μM) 50, p62/actin assay activity: 50 μM; for Activity (μM) 100, p62/actin assay activity: 100 μM
# Procedure: (§1) Cells were treated with peptide in OPTI-MEM (Thermo Scientific) acidified with 0.15% (v/v) 6N HCl for 3 hour. Cells were rinsed with Dulbecco's phosphate buffered saline (PBS) and lysed in lysis buffer (20 mM HEPES, 150 mM NaCl, 1 mM EDTA, 1% Triton X-100, protease inhibitor cocktail (Roche) on ice for 1 hour. Cell lysates were centrifuged at 16,000 g for 10 min at 4° C. and analyzed by SDS-PAGE and transferred to PVDF membranes. The membranes were blocked 5% non-fat dry milk (NFDM) in PBST (PBS+0.05% Tween-20) for 1 hour, then incubated overnight at 4° C. with primary antibody in 5% NFDM in PBST. The blots were washed with PBST and incubated with HRP-conjugated secondary antibodies diluted in 5% NFDM in PBST for 1 hour at room temperature. Membranes were washed with PBST and visualized with SuperSignal West Pico Chemiluminescent Substrate (Thermo Scientific). Semi-quantitative results were obtained by noting the lowest concentration at which both p62 degradation and LC3-I to LC3-II conversion were observed.
# (§2) Compounds 1-10 were evaluated using the assays described in Examples 4 and 5. Activity for each compound was measured in the p62 degradation assay and the LC3 marker assay as described herein. The activity at each concentration of peptide is given as, for example, (0/+) where 0 would be the p62/actin assay activity and + would be the LC3 assay activity.
# LC3 = LC3 marker assay (LC3-I to LC3-II conversion immunoblot);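 as to Activity (μM) 10, LC3 assay activity: HeLa cells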;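 as to Activity (μM) 100, LC3 assay activity: HeLa cells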;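 as to Activity (μM) 30, LC3 assay activity: HeLa cells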;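 as to Activity (μM) 50, LC3 assay activity: HeLa cells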; type: cell-based; design: key: −: activity not reported; 0: decreased vs. WT; +: similar to WT; ++: modest increase vs. WT; +++: significant increase vs. WT; conditions: Table 8, control compound T25, second symbol; for Activity (μM) 5, LC3 assay activity: 5 μM; for Activity (μM) 10, LC3 assay activity: 10 μM; for Activity (μM) 30, LC3 assay activity: 30 μM; for Activity (μM) 50, LC3 assay activity: 50 μM; for Activity (μM) 100, LC3 assay activity: 100 μM
# Procedure: as §1, §2
Sequence,"Activity (μM) 5, p62/actin assay activity (p62)","Activity (μM) 10, p62/actin assay activity (p62)","Activity (μM) 30, p62/actin assay activity (p62)","Activity (μM) 50, p62/actin assay activity (p62)","Activity (μM) 100, p62/actin assay activity (p62)","Activity (μM) 5, LC3 assay activity (LC3)","Activity (μM) 10, LC3 assay activity (LC3)","Activity (μM) 30, LC3 assay activity (LC3)","Activity (μM) 50, LC3 assay activity (LC3)","Activity (μM) 100, LC3 assay activity (LC3)"
VCNATCHIWH [Compound 34],0/0,0/0,+,+++/+++,+++/+++,0/0,0/0,++,+++/+++,+++/+++
VCNATCHIWH [Compound 35],,0/0,0,+++,+++,,0/0,+,++,++
VCNATCHIWH [Compound 36],,,,0/0,0/0,,,,0/0,0/0
VCNATCHIWH [Compound 44],,,,0/0,0/0,,,,0/0,0/0
VCNATCHIWH [Compound 48],,,,+++/+++,+++/+++,,,,+++/+++,+++/+++
VCNATCHIWH [Compound 49],,,,+++/+++,+++/+++,,,,+++/+++,+++/+++
VCNATCHIWH [Compound 50],,,,++,++,,,,+++,+++
VCNATCHIWH [Compound 51],,,,+++/+++,+++/+++,,,,+++/+++,+++/+++
VCNATCHIWR (V[dC]NAT[dC]HIWR; cysteine pairing not given here) [Compound 38],,,,0/0,0/0,,,,0/0,0/0
VCNATCRIWR (V[dC]NAT[dC]RIWR; not fully specified (C-terminus); cysteine pairing not given here) [Compound 42],,,,0/0,0/0,,,,0/0,0/0
VWNATCHIWC [Compound 59],0/0,0/0,0/0,,,0/0,0/0,0/0,,
VWNATCHIWC [Compound 65],,,,0/0,,,,,0/0,

# Reference: US10993983B2, “Cyclic peptide epitopes and small-molecule mimics for inducing autophagy” (TRUSTEES OF TUFTS COLLEGE, priority 2016, dated 2021)
